Laboratory results: PubChem BioAssay (NCI)
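Assay format: 96-well plates, 48-hour exposure. At the TGI there is no net growth.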

What was measured:
Assay in all cases: DTP human tumour cell line panel, 48 h
[1] = tested on: RPMI-8226 leukemia
[2] = tested on: BT-549 breast
[3] = tested on: NCI-H226 lung
[4] = tested on: NCI/ADR-RES ovarian
[5] = tested on: HCT-116 colon
[6] = tested on: MDA-MB-231 breast
[7] = tested on: CAKI-1 renal
[8] = tested on: MALME-3M melanoma
[9] = tested on: KM12 colon
[10] = tested on: EKVX NSCLC
[11] = tested on: U251 CNS
[12] = tested on: HOP-62 NSCLC
[13] = tested on: OVCAR-8 ovarian
[14] = tested on: MDA-MB-435
[15] = tested on: SNB-19 CNS
[16] = tested on: ACHN renal
[17] = tested on: SF-295 CNS
[18] = tested on: A549 NSCLC
[19] = tested on: HT29 colon
[20] = tested on: UACC-257 melanoma
[21] = tested on: OVCAR-3 ovarian
[22] = tested on: SK-MEL-2 melanoma
[23] = tested on: SF-268 CNS
[24] = tested on: HOP-92 NSCLC
[25] = tested on: SR leukemia
[26] = tested on: PC-3 prostate
[27] = tested on: COLO 205 colon
[28] = tested on: MOLT-4 leukemia
[29] = tested on: OVCAR-4 ovarian
[30] = tested on: DU-145 prostate
[31] = tested on: M14 melanoma
[32] = tested on: HCC-2998 colon
[33] = tested on: TK-10 renal
[34] = tested on: CCRF-CEM leukemia
[35] = tested on: HL-60(TB) leukemia
[36] = tested on: MDA-N
[37] = tested on: 786-0 renal
[38] = tested on: SW-620 colon
[39] = tested on: NCI-H460 lung
[40] = tested on: SN12C renal
[41] = tested on: NCI-H23 lung
[42] = tested on: OVCAR-5 ovarian
[43] = tested on: K-562 leukemia
[44] = tested on: HCT-15 colon
[45] = tested on: SK-MEL-5 melanoma
[46] = tested on: IGROV1 ovarian
[47] = tested on: MCF7 breast
[48] = tested on: HS 578T breast
[49] = tested on: NCI-H522 lung
[50] = tested on: LOX IMVI melanoma
[51] = tested on: SNB-75 CNS
[52] = tested on: RXF 393 renal
[53] = tested on: UO-31 renal
[54] = tested on: SK-MEL-28 melanoma
[55] = tested on: SF-539 CNS
[56] = tested on: A498 renal
[57] = tested on: T-47D breast
[58] = tested on: SK-OV-3 ovarian
[59] = tested on: UACC-62 melanoma

Measured: TGI

CC(=O)c1cc2ccccc2oc1=O
not listed: [57] | [58] | [59]
> 100 µM: all other assays above

C=C(C)[C@@H]1CCC2=C[C@H](OC2=O)[C@@]2(C)C[C@@H]2C2=CC(C)=C(O2)[C@H]1O
48.2 µM: [49]
not listed: [1] | [2] | [45] | [48]
> 75 µM: all other assays above

CC(C(O)c1ccccc1)C(O)(C(F)(F)F)C(F)(F)F (centres undefined)
not listed: [2]
> 100 µM: all other assays above
